Laboratory results taken from patent publication US20260212953A1, “An Integrative Framework to Identify Therapeutic Molecules for Treating Preterm Birth” (The Regents of the University of California, priority 2023, published 2026).
Entries after “also recorded” stand apart in the source; their conditions may differ.

Assays:
[1] = system: primary human uterine smooth muscle cells (HUtSMC); experiment: Collagen gel contraction assay; format: cell-based; settings: for effect on HUtSMC contraction, contractile state stimulated by oxytocin: 100 nM oxytocin, OXY+DMSO as control; for reduction of oxytocin-induced myometrial contractility: on average over the four named pre-clinical drugs; for effect on HUtSMC contraction, quiescent state: PBS+DMSO as control
Source text: We performed experiments to determine the functional roles of the small molecules in regulating labor timing. Because labor onset is hallmarked by muscle contraction in the uterus, we asked whether these small molecules could alter smooth muscle contraction in the uterus. We performed collagen gel contraction assays on primary human uterine smooth muscle cells (HUtSMC) (Ying et al., 2015) to examine the modes of action of the top 9 candidate drugs from our prediction (FIG. 5D). For each drug, we tested its effect on modulating HUtSMC contractility in stimulated (by oxytocin to mimic labor-like phenotypes) and quiescent states by treating cells with oxytocin and vehicle, respectively. In either condition, we determined the pharmacological effects of our identified compounds on cellular contraction (each with at least 8 replicates).
Primary Human Uterine Smooth Muscle Cells (HUISMC) were purchased from PromoCells (Cat #C-12575, Fisher Scientific, MA). Collagen gel contraction assays were performed following (Kita et al., 2008; Ying et al., 2015) with modifications. Briefly, 150 ul of collagen (Cat #5074, SigmaAldrich) was added to each well in a 48-well plate. 80,000 HUtSMC suspension in 300 ul Smooth Muscle Cell Growth Basal Medium (Lonza #CC-3181) were seeded to each well after collagen polymerization for an hour. The cells were then treated with either testing compounds or DMSO in the presence of 100 nM oxytocin or PBS control. We carefully detached the collagen from the wells by tips after 1 hour incubation at 37° C., and fixed the cells with 4% paraformaldehyde in PBS for 30 minutes after 18 hours to ensure the equivalent culture durations for all groups before imaging. We captured bright-field images with microscope systems (AmScope, Irvine, CA), and measured the gel diameters in the captured images by ImageJ where the fold changes to no cell control were taken for statistical analysis. At least three biological replicates were performed for each compound, and technically triplicates were included in each biological replicate. Information about small molecules in the study could be found in Table 4.

recurrent preterm labor = experiment: Weekly 17-OHPC injections in women with previous spontaneous preterm labor (longitudinal cohort); format: in vivo, human; settings: number among 48 study participants; 250 mg weekly i.m., 16 to 36 weeks of gestation
Procedure: We performed a longitudinal patient recruitment in Alabama. The study involved 48 study participants who had previous history of spontaneous preterm labor (Supplementary Table 5 for patient information). All women admitted to the study were with singleton pregnancy and received weekly intramuscular injections of Makena 17-OHPC 250 mg beginning at 16 weeks until 36 weeks of gestation. Among the 48 study participants, 28 were considered responders to the treatment and delivered at term, whereas the remaining 20 were considered non-responders and had spontaneous preterm birth after the treatment. We acknowledged the possibility that those considered to be responders might include individuals who delivered at term owing to other reasons and not affected by the treatment. However, if we could observe genetic factors indeed differentiating the two groups, especially those involved in progesterone signaling, the observation then should be explained by progestin treatment.
We performed longitudinal recruitment of 48 women in Alabama who had previous history of spontaneous preterm labor. All women admitted to the study were with singleton pregnancy and received weekly intramuscular injections of Makena OHP 250 mg beginning at 16 weeks until 36 weeks of gestation. This study was approved by Stanford Institutional Review Board (IRB #21956). […]

preterm labor = settings: chronic treatment; cited from earlier work
uterine contractility = settings: in vivo; cited from earlier work
[2] = system: smooth muscle cells in other organs; settings: literature curation; cited from earlier work
HUtSMCs = experiment: Cell viability of HUtSMCs treated with different concentrations of RKI-1447; format: cell-based, human
Source text: These experimental data provided quantitative guidance on its potential clinical deployment. […] As a potent inhibitor of the Rho-kinases ROCKI/II, RKI-1447 has been mainly investigated for therapeutic effects on cancer (Dyberg et al., 2019; Li et al., 2020; Patel et al., 2012), glaucoma (Cush et al., 1995), and nonalcoholic fatty liver disease (Wang and Jiang, 2020), with less focus on putative effects on modulating uterine contractility. […] These observations provided mechanistic basis for our drug discovery and experimental observations (FIGS. 5E and 5F).

preterm birth = settings: daily low-dose; women of their first pregnancies; cited from earlier work
[3] = system: primary myometrial cell cultures; experiment: RNA-Seq of primary myometrial cell cultures treated with FSK or IL-1B (Stanfield et al., 2019a); format: cell-based, human; settings: published RNA-Seq data re-examined; P=0.68
Source text: Performing functional enrichment analysis, we observed that the 69 Group I genes were highly enriched for functions associated with the regulation of muscle contraction (FDR=8.10e-4), more specifically with relaxation of muscle (FDR=2.71e-3, FIG. 3H). This explained their elevated expression prior to labor as well as their down-regulation upon delivery to promote muscle contractility.
Note that inflammatory factors are known to promote muscle contractility during labor (Khanjani et al., 2011; Mendelson et al., 2019), explaining the down-regulation of Group II genes before labor and their activation during labor. We examined primary myometrial cell cultures treated with IL-1B to mimic tissue-level inflammation at the labor onset (Stanfield et al., 2019a). […] In fact, Group-II genes included a key inflammatory activators AP-1 (with its subunits JUN and FOS), which play a central role in regulating smooth muscle contractility proteins at labor onset (Mendelson et al., 2019).
We downloaded normalized FPKM gene expression matrix of RNA-seq data (GSE134896 and GSE163773) (Ackerman et al., 2021; Stanfield et al., 2019a) from GEO for primary myometrial cell cultures following treatment with Forskolin and Interleukin-1B, and for primary myometrium samples harvested from 31 women at labor. […]

Molecule | effect on HUtSMC contraction, contractile state stimulated by oxytocin [1] | effect on myometrial cell contractility in either quiescent or contractile state [1] | reduction of oxytocin-induced myometrial contractility [1] [%] | other results
Brc1c(Br)c(Br)c2[nH]nnc2c1Br [4,5,6,7-tetrabromobenzotriazole] | attenuated myometrial contraction | altered myometrial contractility | 15.73 | effect on HUtSMC contraction, contractile state stimulated by oxytocin ([1]; listed as TBBt): attenuated oxytocin-induced myometrial contractility
CCCCCC(=O)O[C@]1(C(C)=O)CC[C@H]2[C@@H]3CCC4=CC(=O)CC[C@]4(C)[C@H]3CC[C@@]21C [17-OHPC, 17-hydroxyprogesterone caproate] | – | – | – | non-responders (spontaneous preterm birth after the treatment) (recurrent preterm labor): 20; responders (delivered at term) (recurrent preterm labor): 28
O=c1cc(N2CCOCC2)oc2c(-c3ccccc3)cccc12 [LY294002] | – | – | 15.73 | –
COc1cccc(-c2cc(=O)c3ccccc3o2)c1N [PD-98059] | – | absence of signal | – | efficacy in a rat model of preterm labor (preterm labor): demonstrated efficacy
O=C(NCc1cccc(O)c1)Nc1nc(-c2ccncc2)cs1 [RKI-1447] | attenuated myometrial contraction; also recorded: attenuated oxytocin-induced myometrial contractility | altered myometrial contractility | – | effect on uterine contractility in rats (uterine contractility): attenuated uterine contractility; side effects on smooth muscle cells in other organs, particularly cardiotoxicity [2]: minimal effects; dose-response relationship on myometrial smooth muscle relaxation ([1]; 0 to 10 μM, quiescent (PBS) and contractile (OXY) states): dose-dependent effects on myometrial smooth muscle relaxation; effect on myometrial cell contractility in the presence and absence of oxytocin ([1]; both states): the only drug to prevent myometrial cell contractility in the presence and absence of oxytocin; effect on HUtSMC contraction, quiescent state [1]: strongly reduced the contraction; concentration at emergence of cellular toxicity (HUtSMCs; HUtSMCs): 50 µM; effect on cell viability (HUtSMCs; over a wide dose-range): little effect on cell viability
C[S+]([O-])c1ccc(-c2nc(-c3ccncc3)c(-c3ccc(F)cc3)[nH]2)cc1 (centres unmarked) [SB-203580] | increased the contraction | altered myometrial contractility | – | effect on HUtSMC contraction, quiescent state [1]: significantly induced myometrial cell contraction
N#CC(=C(/N)Sc1ccccc1N)/C(C#N)=C(\N)Sc1ccccc1N [U0126] | – | absence of signal | – | efficacy in a rat model of preterm labor (preterm labor): demonstrated efficacy
CN1CCN(Cc2ccc(-c3cnc4[nH]cc(-c5ccc6[nH]ccc6c5)c4c3)cc2)CC1 [URMC-099] | attenuated myometrial contraction; also recorded: attenuated oxytocin-induced myometrial contractility | altered myometrial contractility | 15.73 | –
CC(=O)Oc1ccccc1C(=O)O [aspirin] | – | – | – | reduction of the risk of early preterm birth (before 34 gestational weeks) (preterm birth): 25%; reduction of the risk of preterm birth (before 37 gestational weeks) (preterm birth): 11%
[H]/N=C(/N)SCCCn1cc(C2=C(c3cn(C)c4ccccc34)C(=O)NC2=O)c2ccccc21 [bisindolylmaleimide-ix] | attenuated myometrial contraction; also recorded: attenuated oxytocin-induced myometrial contractility | altered myometrial contractility | 15.73 | –
IL-1B: cytokine used to mimic tissue-level inflammation at the labor onset | – | – | – | response of Group II genes to treatment [3]: overall not responsive
